No end group written: not given here.
Columns and labels:
CLK1 = settings: ref Batson et al., 2017; cited from earlier work
SRPK2 = settings: ref Batson et al., 2017; cited from earlier work
[1] = test system: interaction between SRPK1 and SRSF1; assay: In vitro GST pull-down of GST-SRSF1 with SRPK1ΔNS3; assay type: binding; settings: 500 nM GST-SRSF1, 500 nM SRPK1, 4°C 3 h, SDS-PAGE, Coomassie Blue
SRPK1 = SRPK1 (Homo sapiens, UniProt Q96SB4); assay: In vitro radioactive kinase assay, SRSF1 phosphorylation by SRPK1; assay type: biochemical; settings: 50 μM [32P]ATP, different inhibitor concentrations
SRPK1 (SRPK1ΔNS3) = SRPK1 (SRPK1ΔNS3) (Homo sapiens, UniProt Q96SB4); assay: Isothermal titration calorimetry; assay type: binding; settings: SD

Q: What does the source list for `O=C(Nc1cc(C(F)(F)F)ccc1N1CCN(Cc2ccccn2)CC1)c1ccc(-c2ccncc2)o1` [SPHINX31]?
A: affinity for CLK1 lower than that of SRPK1 (CLK1): 50 fold; affinity for SRPK2 lower than that of SRPK1 (SRPK2): 50 fold

Q: What does the source list for GRKKRRQRRRPQSWQDLKDH [control peptide]?
A: inhibition of the binding of GST-SRSF1 and SRPK1ΔNS3 (GST pull-down) [1]: did not inhibit; inhibition of SRSF1 phosphorylation by SRPK1 (in words) (SRPK1): did not inhibit

Q: For RERARTR [7-mer, R-E-R-A-R-T-R], which Kd (SRPK1 (SRPK1ΔNS3)) is on record?
A: 112 ± 9.9 µM

Source: paper PMC8102418 (iScience, 2021)
